According to ChEMBL document CHEMBL1201862, “PubChem BioAssay data set” (2004):
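Interpolation was linear, between the two tested concentrations surrounding the appropriate level; five concentrations were tested over 48 hours in 96-well plates. At the GI50, growth is halved.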 Active and inactive are the calls of the source. Cut-off read from the data, not from the text of the source: active = GI50 up to about 1.1 µM and inactive = higher.

Experiments:
Assay in all cases: inhibition of tumour cell growth, NCI panel, 48 h
[1] = tested on: A498
[2] = tested on: HCT-116
[3] = tested on: IGROV-1
[4] = tested on: MOLT-4
[5] = tested on: NCI-H226
[6] = tested on: NCI-H522
[7] = tested on: RPMI-8226
[8] = tested on: RXF 393
[9] = tested on: SF-268
[10] = tested on: SK-MEL-28
[11] = tested on: SK-MEL-2
[12] = tested on: SK-OV-3
[13] = tested on: SN12C
[14] = tested on: SNB-19
[15] = tested on: SW-620
[16] = tested on: U-251
[17] = tested on: UO-31
[18] = tested on: MDA-N
[19] = tested on: HL-60

Structure (SMILES)	GI50 [1]	GI50 [2]	GI50 [3]	GI50 [4]	GI50 [5]	GI50 [6]	GI50 [7]	GI50 [8]	GI50 [9]	GI50 [10]	GI50 [11]	GI50 [12]	GI50 [13]	GI50 [14]	GI50 [15]	GI50 [16]	GI50 [17]	GI50 [18]	GI50 [19]
CC12CN(CC[N+](C)(C)C)CC1(C)C1CCC2O1 (centres undefined)	> 100 µM (inactive)	> 100 µM (inactive)	> 100 µM (inactive)	> 100 µM (inactive)	> 100 µM (inactive)	> 100 µM (inactive)	> 100 µM (inactive)	> 100 µM (inactive)	> 100 µM (inactive)	> 100 µM (inactive)	> 100 µM (inactive)	> 100 µM (inactive)	> 100 µM (inactive)	> 100 µM (inactive)	> 100 µM (inactive)	> 100 µM (inactive)	> 100 µM (inactive)	–	–
CCOC(=O)[C@@H]1[C@@H](c2ccccc2)N(C)O[C@@]1(c1ccccc1)C(F)(F)F	> 100 µM (inactive)	36.5 µM (inactive)	> 100 µM (inactive)	> 10 µM (inactive)	23.1 µM (inactive)	39.9 µM (inactive)	20.7 µM (inactive)	40.2 µM (inactive)	> 100 µM (inactive)	85.9 µM (inactive)	25.5 µM (inactive)	43.7 µM (inactive)	> 100 µM (inactive)	> 100 µM (inactive)	43.7 µM (inactive)	50.4 µM (inactive)	> 100 µM (inactive)	52.8 µM (inactive)	–
N#Cc1c(C#N)c(-c2ccco2)n(/N=C/c2ccco2)c1N	27.6 µM (inactive)	52.8 µM (inactive)	35.6 µM (inactive)	94.6 µM (inactive)	18.8 µM (inactive)	> 100 µM (inactive)	> 100 µM (inactive)	19.9 µM (inactive)	28.2 µM (inactive)	–	> 100 µM (inactive)	43.3 µM (inactive)	32.6 µM (inactive)	24.9 µM (inactive)	> 100 µM (inactive)	24.6 µM (inactive)	> 100 µM (inactive)	–	> 100 µM (inactive)
CC(=O)C1=C(C)N(c2ccc(C)cc2)C2(O)C3=C(C(=O)c4ccccc4C3=O)C(O)=CC12Cl (centres undefined)	3.15 µM (inactive)	30.8 µM (inactive)	11.1 µM (inactive)	26.7 µM (inactive)	43 µM (inactive)	6.14 µM (inactive)	6.5 µM (inactive)	9.73 µM (inactive)	23.6 µM (inactive)	10.2 µM (inactive)	8.53 µM (inactive)	55.1 µM (inactive)	17 µM (inactive)	12.8 µM (inactive)	9.86 µM (inactive)	11.7 µM (inactive)	11.1 µM (inactive)	–	4.31 µM (inactive)
CN1CCN(CN2C(=O)C3C4C=CC(C3C2=O)C2C3C(=O)N(CN5CCN(C)CC5)C(=O)C3C42)CC1 (centres undefined)	93.1 µM (inactive)	16.5 µM (inactive)	34.2 µM (inactive)	22.2 µM (inactive)	–	–	24.7 µM (inactive)	22.9 µM (inactive)	25.3 µM (inactive)	23.5 µM (inactive)	–	–	20.3 µM (inactive)	–	19 µM (inactive)	20.8 µM (inactive)	30.3 µM (inactive)	–	–
NNC(=O)c1ccccc1Nc1nc(-c2cccs2)nc2ccc(Br)cc12	> 100 µM (inactive)	70 µM (inactive)	> 100 µM (inactive)	> 100 µM (inactive)	> 100 µM (inactive)	> 100 µM (inactive)	> 100 µM (inactive)	–	31.1 µM (inactive)	45.5 µM (inactive)	> 100 µM (inactive)	> 100 µM (inactive)	37.2 µM (inactive)	53.3 µM (inactive)	> 100 µM (inactive)	23.2 µM (inactive)	> 100 µM (inactive)	–	71.3 µM (inactive)
CCOP(=O)(OCC)C(c1ccccc1)N(C(=O)NC(F)(F)F)c1cccc(F)c1 (centres undefined)	–	> 100 µM (inactive)	6.93 µM (inactive)	81.1 µM (inactive)	> 100 µM (inactive)	> 100 µM (inactive)	83.2 µM (inactive)	64.7 µM (inactive)	> 100 µM (inactive)	> 100 µM (inactive)	–	–	> 100 µM (inactive)	> 100 µM (inactive)	> 100 µM (inactive)	> 100 µM (inactive)	58.6 µM (inactive)	> 100 µM (inactive)	> 100 µM (inactive)
COc1c(OC/C=C(\C)CCC=C(C)C)ccc2ccc(=O)oc12 [COLLININ]	> 100 µM (inactive)	> 100 µM (inactive)	> 100 µM (inactive)	56.5 µM (inactive)	–	> 100 µM (inactive)	> 100 µM (inactive)	–	96.8 µM (inactive)	> 100 µM (inactive)	> 100 µM (inactive)	> 100 µM (inactive)	> 100 µM (inactive)	65.2 µM (inactive)	> 100 µM (inactive)	> 100 µM (inactive)	> 100 µM (inactive)	> 100 µM (inactive)	43.4 µM (inactive)
O=C(Nc1cccc(F)c1)c1cc2ccc(O)cc2o/c1=N\c1cccc(F)c1	33 µM (inactive)	4.78 µM (inactive)	2.08 µM (inactive)	2.45 µM (inactive)	–	2.99 µM (inactive)	2.87 µM (inactive)	–	3.03 µM (inactive)	5.09 µM (inactive)	8.2 µM (inactive)	13.2 µM (inactive)	5.96 µM (inactive)	8.97 µM (inactive)	4.27 µM (inactive)	3.99 µM (inactive)	4.36 µM (inactive)	6.35 µM (inactive)	2.65 µM (inactive)
CC(Oc1ccc(Cl)cc1Cl)C(=O)NN1C(=O)CC(=O)N(c2ccccc2)C1=S (centres undefined)	26.9 µM (inactive)	35.5 µM (inactive)	55.3 µM (inactive)	46.3 µM (inactive)	37.8 µM (inactive)	31.5 µM (inactive)	30.7 µM (inactive)	41 µM (inactive)	95.1 µM (inactive)	98.6 µM (inactive)	42.2 µM (inactive)	> 100 µM (inactive)	52.4 µM (inactive)	66.4 µM (inactive)	53.1 µM (inactive)	41.9 µM (inactive)	64.7 µM (inactive)	–	0.527 µM (active)
Fc1ccccc1C1SCC2=Nc3ccccc3CN21 (centres undefined)	> 100 µM (inactive)	48.5 µM (inactive)	–	> 100 µM (inactive)	–	–	> 100 µM (inactive)	> 100 µM (inactive)	54.1 µM (inactive)	> 100 µM (inactive)	43.6 µM (inactive)	> 100 µM (inactive)	> 100 µM (inactive)	> 100 µM (inactive)	> 100 µM (inactive)	> 100 µM (inactive)	> 100 µM (inactive)	> 100 µM (inactive)	> 100 µM (inactive)
N/N=C1/CCCc2nonc21	–	> 100 µM (inactive)	> 100 µM (inactive)	> 100 µM (inactive)	–	–	> 100 µM (inactive)	> 100 µM (inactive)	> 100 µM (inactive)	> 100 µM (inactive)	> 100 µM (inactive)	> 100 µM (inactive)	> 100 µM (inactive)	–	> 100 µM (inactive)	> 100 µM (inactive)	–	> 100 µM (inactive)	> 100 µM (inactive)
C/C(O[Si](C(C)C)(C(C)C)C(C)C)=C(\C)C(=O)N(C)c1ccccc1Cl	> 100 µM (inactive)	> 100 µM (inactive)	> 100 µM (inactive)	> 100 µM (inactive)	> 100 µM (inactive)	73.8 µM (inactive)	> 100 µM (inactive)	> 100 µM (inactive)	> 100 µM (inactive)	> 100 µM (inactive)	–	–	> 100 µM (inactive)	> 100 µM (inactive)	> 100 µM (inactive)	> 100 µM (inactive)	> 100 µM (inactive)	–	–
O=C(O[C@H]1CCN2C[C@H]3C[C@H](CN4C(=O)CCC[C@H]34)[C@@H]2C1)c1ccc(O)cc1	> 100 µM (inactive)	> 100 µM (inactive)	> 100 µM (inactive)	–	> 100 µM (inactive)	> 100 µM (inactive)	> 100 µM (inactive)	> 100 µM (inactive)	> 100 µM (inactive)	> 100 µM (inactive)	> 100 µM (inactive)	> 100 µM (inactive)	> 100 µM (inactive)	> 100 µM (inactive)	> 100 µM (inactive)	> 100 µM (inactive)	> 100 µM (inactive)	> 100 µM (inactive)	–
Cc1nc(N)sc1C(=O)Nc1nc[nH]n1	–	> 100 µM (inactive)	> 100 µM (inactive)	52.1 µM (inactive)	> 100 µM (inactive)	> 100 µM (inactive)	> 100 µM (inactive)	> 100 µM (inactive)	> 100 µM (inactive)	> 100 µM (inactive)	> 100 µM (inactive)	> 100 µM (inactive)	> 100 µM (inactive)	> 100 µM (inactive)	> 100 µM (inactive)	> 100 µM (inactive)	> 100 µM (inactive)	> 100 µM (inactive)	13.3 µM (inactive)
Cc1cs/c(=N/c2ccccc2)n1CCC(O)(P(=O)(O)O)P(=O)(O)O	–	> 100 µM (inactive)	> 100 µM (inactive)	–	> 100 µM (inactive)	> 100 µM (inactive)	–	> 100 µM (inactive)	> 100 µM (inactive)	–	–	> 100 µM (inactive)	–	> 100 µM (inactive)	–	–	> 100 µM (inactive)	> 100 µM (inactive)	–
COC(=O)C1=C(C)NC(=S)NC1c1ccc(N(CCCl)CCCl)cc1Cl (centres undefined)	–	34 µM (inactive)	29.4 µM (inactive)	4.55 µM (inactive)	3.56 µM (inactive)	31.8 µM (inactive)	1.33 µM (inactive)	> 34.9 µM (inactive)	23.9 µM (inactive)	29 µM (inactive)	24.2 µM (inactive)	> 100 µM (inactive)	34.2 µM (inactive)	49 µM (inactive)	33 µM (inactive)	53.6 µM (inactive)	35.8 µM (inactive)	–	39.4 µM (inactive)
